Assay results taken from US12233081B2, “Hygromycin a compounds and methods of treating spirochete diseases” (priority 2018, dated 2025).
Values after ≈ are worked out from the molar mass of the structure shown. Read-outs that look alike come from different tables or passages of the source.

Columns and labels:
Treponema pallidum = assay: microbroth dilution MIC; assay type: cell-based
gut microbiome [1] = settings: mouse, in vivo
gut microbiome [2] = assay: gut microbiome 16S rRNA sequencing of stool of infected, treated mice; settings: IP 50 mg/kg every 12 hours for 5 days

`CC(=O)[C@H]1O[C@@H](Oc2ccc(/C=C(\C)C(=O)N[C@@H]3[C@H](O)[C@@H](O)[C@H]4OCO[C@H]4[C@@H]3O)cc2O)[C@@H](O)[C@@H]1O` [Hygromycin A] was tested. Which MIC (Treponema pallidum) did it give?
Its MIC is 0.03 µg/mL (≈ 0.0587 µM).

And the “Camobacteriaceae change in percent relative abundance” value (gut microbiome [1]; C3H, ip, 50 mg/kg, 5 days)?
Its value is −0.001%.

What about the “Chitinophagaceae change in percent relative abundance” value (gut microbiome [1]; C3H, ip, 50 mg/kg, 5 days) of the same compound?
Its value is 0.000%.

And the “Christensenellaceae change in percent relative abundance” value (gut microbiome [1]; C3H, ip, 50 mg/kg, 5 days)?
Its value is 0.000%.

What about the “Clostridiaceae change in percent relative abundance” value (gut microbiome [1]; C3H, ip, 50 mg/kg, 5 days) of the same compound?
The value was −0.066%.

What about the “Clostridiales change in percent relative abundance” value (gut microbiome [1]; C3H, ip, 50 mg/kg, 5 days) of the same compound?
Its value is −0.099%.

And the “Clostridiales family xi. incertae sedis change in percent relative abundance” value (gut microbiome [1]; C3H, ip, 50 mg/kg, 5 days)?
Its value is −0.047%.

What about the “Clostridiales family xiii. incertae sedis change in percent relative abundance” value (gut microbiome [1]; C3H, ip, 50 mg/kg, 5 days) of the same compound?
The value was −0.013%.

What about the “Coriobacteriaceae change in percent relative abundance” value (gut microbiome [1]; C3H, ip, 50 mg/kg, 5 days) of the same compound?
The value was 0.014%.

And the “overall disruption to the gut microbiome” value (gut microbiome [1])?
The value was “considerably less severe”.

And the “Acholeplasmataceae change in percent relative abundance” value (gut microbiome [1]; ip, 50 mg/kg)?
The value was 0.003%.

And the “Aerococcaceae change in percent relative abundance” value (gut microbiome [1]; ip, 50 mg/kg)?
The value was 0.001%.

What about the “Anaerolineaceae change in percent relative abundance” value (gut microbiome [1]; ip, 50 mg/kg) of the same compound?
Its value is 0.000%.

What about the “Anaeroplasmataceae change in percent relative abundance” value (gut microbiome [1]; ip, 50 mg/kg) of the same compound?
The value was −0.007%.

And the “Anaplasmataceae change in percent relative abundance” value (gut microbiome [1]; ip, 50 mg/kg)?
The value was 0.000%.

And the “Aspergillaceae change in percent relative abundance” value (gut microbiome [1]; ip, 50 mg/kg)?
Its value is 0.000%.

And the “Asteraceae change in percent relative abundance” value (gut microbiome [1]; ip, 50 mg/kg)?
Its value is 0.001%.

What about the “Bacillaceae change in percent relative abundance” value (gut microbiome [1]; ip, 50 mg/kg) of the same compound?
Its value is −0.021%.

And the “Bacillales change in percent relative abundance” value (gut microbiome [1]; ip, 50 mg/kg)?
Its value is −0.108%.

And the “Bacteroidaceae change in percent relative abundance” value (gut microbiome [1]; ip, 50 mg/kg)?
The value was −14.397%.

And the “Bifidobacteriaceae change in percent relative abundance” value (gut microbiome [1]; ip, 50 mg/kg)?
The value was 0.000%.

What about the “Candidatus saccharibacteria change in percent relative abundance” value (gut microbiome [1]; ip, 50 mg/kg) of the same compound?
The value was −0.022%.

And the “Corynebacteriaceae change in percent relative abundance” value (gut microbiome [1]; ip, 50 mg/kg)?
The value was 0.000%.

And the “Cytophagaceae change in percent relative abundance” value (gut microbiome [1]; ip, 50 mg/kg)?
The value was 0.000%.

And the “Deferribacteraceae change in percent relative abundance” value (gut microbiome [1]; ip, 50 mg/kg)?
The value was 0.368%.

And the “Defluviitaleaceae change in percent relative abundance” value (gut microbiome [1]; ip, 50 mg/kg)?
The value was −0.001%.

And the “Desulfobacteraceae change in percent relative abundance” value (gut microbiome [1]; ip, 50 mg/kg)?
Its value is 0.000%.

And the “Enterobacteriaceae change in percent relative abundance” value (gut microbiome [1]; ip, 50 mg/kg)?
Its value is 1.250%.

What about the “Enterococcaceae change in percent relative abundance” value (gut microbiome [1]; ip, 50 mg/kg) of the same compound?
The value was 0.036%.

And the “Erysipelotrichaceae change in percent relative abundance” value (gut microbiome [1]; ip, 50 mg/kg)?
Its value is 5.307%.

What about the “Eubacteriaceae change in percent relative abundance” value (gut microbiome [1]; ip, 50 mg/kg) of the same compound?
Its value is 0.037%.

And the “Fabaceae change in percent relative abundance” value (gut microbiome [1]; ip, 50 mg/kg)?
The value was 0.000%.

What about the “Flavobacteriaceae change in percent relative abundance” value (gut microbiome [1]; ip, 50 mg/kg) of the same compound?
Its value is 0.000%.

What about the “Fusobacteriaceae change in percent relative abundance” value (gut microbiome [1]; ip, 50 mg/kg) of the same compound?
The value was 0.000%.

And the “Gammaproteobacteria change in percent relative abundance” value (gut microbiome [1]; ip, 50 mg/kg)?
Its value is −0.020%.

And the “Gloeobacteraceae change in percent relative abundance” value (gut microbiome [1]; ip, 50 mg/kg)?
Its value is −0.020%.

And the “Gracilibacteraceae change in percent relative abundance” value (gut microbiome [1]; ip, 50 mg/kg)?
The value was −0.112%.

And the “Halomonadaceae change in percent relative abundance” value (gut microbiome [1]; ip, 50 mg/kg)?
The value was 0.000%.

And the “Hylidae change in percent relative abundance” value (gut microbiome [1]; ip, 50 mg/kg)?
Its value is 0.000%.

And the “Kopriimonadaceae change in percent relative abundance” value (gut microbiome [1]; ip, 50 mg/kg)?
The value was 0.000%.

And the “Lachnospiraceae change in percent relative abundance” value (gut microbiome [1]; ip, 50 mg/kg)?
Its value is 1.241%.

And the “Lactobacillaceae change in percent relative abundance” value (gut microbiome [1]; ip, 50 mg/kg)?
Its value is 9.667%.

And the “Leuconostocaceae change in percent relative abundance” value (gut microbiome [1]; ip, 50 mg/kg)?
Its value is −0.001%.

What about the “Methylobacteriaceae change in percent relative abundance” value (gut microbiome [1]; ip, 50 mg/kg) of the same compound?
Its value is 0.000%.

And the “Microbacteriaceae change in percent relative abundance” value (gut microbiome [1]; ip, 50 mg/kg)?
Its value is 0.000%.

And the “Mucoraceae change in percent relative abundance” value (gut microbiome [1]; ip, 50 mg/kg)?
The value was 0.000%.

And the “Nostocaceae change in percent relative abundance” value (gut microbiome [1]; ip, 50 mg/kg)?
The value was 0.000%.

And the “Onagraceae change in percent relative abundance” value (gut microbiome [1]; ip, 50 mg/kg)?
The value was 0.000%.

And the “Oscillatoriales change in percent relative abundance” value (gut microbiome [1]; ip, 50 mg/kg)?
Its value is 0.000%.

And the “Oscillospiraceae change in percent relative abundance” value (gut microbiome [1]; ip, 50 mg/kg)?
Its value is −0.009%.

And the “Paenibacillaceae change in percent relative abundance” value (gut microbiome [1]; ip, 50 mg/kg)?
Its value is −0.001%.

And the “Pasteurellaceae change in percent relative abundance” value (gut microbiome [1]; ip, 50 mg/kg)?
The value was 0.000%.

What about the “Pelobacteraceae change in percent relative abundance” value (gut microbiome [1]; ip, 50 mg/kg) of the same compound?
Its value is 0.000%.

And the “Peptococcaceae change in percent relative abundance” value (gut microbiome [1]; ip, 50 mg/kg)?
The value was −0.885%.

And the “Peptoniphilaceae change in percent relative abundance” value (gut microbiome [1]; ip, 50 mg/kg)?
Its value is 0.000%.

And the “Peptostreptococcaceae change in percent relative abundance” value (gut microbiome [1]; ip, 50 mg/kg)?
The value was −0.194%.

What about the “Physalacriaceae change in percent relative abundance” value (gut microbiome [1]; ip, 50 mg/kg) of the same compound?
Its value is 0.000%.

What about the “Poaceae change in percent relative abundance” value (gut microbiome [1]; ip, 50 mg/kg) of the same compound?
The value was 0.019%.

What about the “Polyangiaceae change in percent relative abundance” value (gut microbiome [1]; ip, 50 mg/kg) of the same compound?
Its value is 0.000%.

What about the “Porphyromonadaceae change in percent relative abundance” value (gut microbiome [1]; ip, 50 mg/kg) of the same compound?
The value was −0.221%.

What about the “Prevotellaceae change in percent relative abundance” value (gut microbiome [1]; ip, 50 mg/kg) of the same compound?
The value was −0.319%.

And the “Pseudomonadaceae change in percent relative abundance” value (gut microbiome [1]; ip, 50 mg/kg)?
The value was 0.000%.

And the “Rhizobiaceae change in percent relative abundance” value (gut microbiome [1]; ip, 50 mg/kg)?
Its value is 0.000%.

And the “Rhodobacteraceae change in percent relative abundance” value (gut microbiome [1]; ip, 50 mg/kg)?
The value was 0.000%.

What about the “Rikenellaceae change in percent relative abundance” value (gut microbiome [1]; ip, 50 mg/kg) of the same compound?
Its value is −4.710%.

What about the “Ruminococcaceae change in percent relative abundance” value (gut microbiome [1]; ip, 50 mg/kg) of the same compound?
The value was 1.486%.

And the “Sphingomonadaceae change in percent relative abundance” value (gut microbiome [1]; ip, 50 mg/kg)?
The value was 0.000%.

What about the “Spirochaetaceae change in percent relative abundance” value (gut microbiome [1]; ip, 50 mg/kg) of the same compound?
Its value is −0.074%.

And the “Spiroplasmataceae change in percent relative abundance” value (gut microbiome [1]; ip, 50 mg/kg)?
The value was −0.107%.

What about the “Staphylococcaceae change in percent relative abundance” value (gut microbiome [1]; ip, 50 mg/kg) of the same compound?
The value was 0.004%.

What about the “Streptococcaceae change in percent relative abundance” value (gut microbiome [1]; ip, 50 mg/kg) of the same compound?
The value was 2.055%.

What about the “Thermoanaerobacteraceae change in percent relative abundance” value (gut microbiome [1]; ip, 50 mg/kg) of the same compound?
Its value is −0.018%.

And the “Veillonellaceae change in percent relative abundance” value (gut microbiome [1]; ip, 50 mg/kg)?
The value was 0.000%.

What about the “Verrucomicrobiaceae change in percent relative abundance” value (gut microbiome [1]; ip, 50 mg/kg) of the same compound?
Its value is −0.017%.

What about the “Xanthomonadaceae change in percent relative abundance” value (gut microbiome [1]; ip, 50 mg/kg) of the same compound?
Its value is 0.000%.

What about the “Acholeplasmataceae change in percent relative abundance” value (gut microbiome [1]; po, 50 mg/kg) of the same compound?
Its value is 0.005%.

What about the “Candidatus saccharibacteria change in percent relative abundance” value (gut microbiome [1]; po, 50 mg/kg) of the same compound?
Its value is −0.043%.

And the “Brucellaceae change in percent relative abundance” value (gut microbiome [2])?
Its value is 0.000%.

And the “Francisellaceae change in percent relative abundance” value (gut microbiome [2])?
The value was −0.001%.
